Columns and labels:
[1] = system: Tyrosine-protein kinase ABL1 (Homo sapiens), P00519 [F317I]; test: Binding affinity to human phosphorylated ABL1 F317I mutant at 10 uM incubated for 1 hr by kinase binding assay relative to untreated control
[2] = system: LOX IMVI; test: Cytotoxicity against human LOXIMVI cells after 48 hrs by sulforhodamine B assay; assay type: cell-based
[3] = biological target: Platelet-derived growth factor receptor beta (Homo sapiens) (UniProt P09619); test: Binding affinity to human PDGFRB at 10 uM incubated for 1 hr by kinase binding assay relative to untreated control
Platelet-derived growth factor receptor beta (Homo sapiens), sequence (P09619 whole entry): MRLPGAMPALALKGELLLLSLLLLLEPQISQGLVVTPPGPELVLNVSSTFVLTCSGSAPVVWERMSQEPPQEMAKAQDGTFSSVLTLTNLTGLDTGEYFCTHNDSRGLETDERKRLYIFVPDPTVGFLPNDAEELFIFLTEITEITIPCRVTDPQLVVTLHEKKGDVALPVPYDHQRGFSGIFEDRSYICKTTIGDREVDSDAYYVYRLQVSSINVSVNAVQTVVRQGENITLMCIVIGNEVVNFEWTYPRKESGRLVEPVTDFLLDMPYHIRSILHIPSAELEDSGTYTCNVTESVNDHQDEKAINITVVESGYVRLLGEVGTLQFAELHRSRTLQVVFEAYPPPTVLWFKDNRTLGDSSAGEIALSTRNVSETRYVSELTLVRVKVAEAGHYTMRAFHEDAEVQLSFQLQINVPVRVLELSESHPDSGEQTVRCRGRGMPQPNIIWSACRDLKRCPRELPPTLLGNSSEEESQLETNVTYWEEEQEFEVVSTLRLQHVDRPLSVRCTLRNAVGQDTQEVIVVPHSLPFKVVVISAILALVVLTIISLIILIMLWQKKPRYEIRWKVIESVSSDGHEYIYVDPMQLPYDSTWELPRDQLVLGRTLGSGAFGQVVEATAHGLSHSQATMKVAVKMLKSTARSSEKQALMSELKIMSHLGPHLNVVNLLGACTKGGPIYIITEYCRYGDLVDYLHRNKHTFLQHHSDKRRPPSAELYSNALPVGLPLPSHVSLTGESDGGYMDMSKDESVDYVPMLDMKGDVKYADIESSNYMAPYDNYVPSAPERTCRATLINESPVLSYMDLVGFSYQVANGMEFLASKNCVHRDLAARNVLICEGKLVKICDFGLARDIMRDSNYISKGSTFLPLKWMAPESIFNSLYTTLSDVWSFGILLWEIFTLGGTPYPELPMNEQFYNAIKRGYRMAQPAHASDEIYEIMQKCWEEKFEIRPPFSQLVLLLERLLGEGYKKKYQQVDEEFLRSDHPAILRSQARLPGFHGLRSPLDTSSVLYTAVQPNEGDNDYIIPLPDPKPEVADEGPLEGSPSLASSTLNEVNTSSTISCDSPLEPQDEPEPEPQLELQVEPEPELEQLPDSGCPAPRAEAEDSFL

[4] = system: NCI-H322M; test: Cytotoxicity against human NCI-H322M cells after 48 hrs by sulforhodamine B assay; assay type: cell-based
[5] = system: U-251; test: Cytotoxicity against human U251 cells after 48 hrs by sulforhodamine B assay; assay type: cell-based; conditions: u-251, 48 h
[6] = system: SNB-75; test: Growth inhibition of human SNB75 cells after 48 hrs by sulforhodamine B assay; assay type: functional; conditions: SNB-75, 48 h
[7] = system: UO-31; test: Cytotoxicity against human UO31 cells after 48 hrs by sulforhodamine B assay; assay type: cell-based; conditions: uo-31, 48 h
[8] = system: SW-620; test: Growth inhibition of human SW620 cells after 48 hrs by sulforhodamine B assay; assay type: functional; conditions: SW-620, 48 h
[9] = system: T1, Receptor-type tyrosine-protein kinase FLT3 (Homo sapiens), P36888 [K663Q]; test: Binding affinity to human FLT3 K663Q mutant at 10 uM incubated for 1 hr by kinase binding assay relative to untreated control
T1 sequence (whole entry): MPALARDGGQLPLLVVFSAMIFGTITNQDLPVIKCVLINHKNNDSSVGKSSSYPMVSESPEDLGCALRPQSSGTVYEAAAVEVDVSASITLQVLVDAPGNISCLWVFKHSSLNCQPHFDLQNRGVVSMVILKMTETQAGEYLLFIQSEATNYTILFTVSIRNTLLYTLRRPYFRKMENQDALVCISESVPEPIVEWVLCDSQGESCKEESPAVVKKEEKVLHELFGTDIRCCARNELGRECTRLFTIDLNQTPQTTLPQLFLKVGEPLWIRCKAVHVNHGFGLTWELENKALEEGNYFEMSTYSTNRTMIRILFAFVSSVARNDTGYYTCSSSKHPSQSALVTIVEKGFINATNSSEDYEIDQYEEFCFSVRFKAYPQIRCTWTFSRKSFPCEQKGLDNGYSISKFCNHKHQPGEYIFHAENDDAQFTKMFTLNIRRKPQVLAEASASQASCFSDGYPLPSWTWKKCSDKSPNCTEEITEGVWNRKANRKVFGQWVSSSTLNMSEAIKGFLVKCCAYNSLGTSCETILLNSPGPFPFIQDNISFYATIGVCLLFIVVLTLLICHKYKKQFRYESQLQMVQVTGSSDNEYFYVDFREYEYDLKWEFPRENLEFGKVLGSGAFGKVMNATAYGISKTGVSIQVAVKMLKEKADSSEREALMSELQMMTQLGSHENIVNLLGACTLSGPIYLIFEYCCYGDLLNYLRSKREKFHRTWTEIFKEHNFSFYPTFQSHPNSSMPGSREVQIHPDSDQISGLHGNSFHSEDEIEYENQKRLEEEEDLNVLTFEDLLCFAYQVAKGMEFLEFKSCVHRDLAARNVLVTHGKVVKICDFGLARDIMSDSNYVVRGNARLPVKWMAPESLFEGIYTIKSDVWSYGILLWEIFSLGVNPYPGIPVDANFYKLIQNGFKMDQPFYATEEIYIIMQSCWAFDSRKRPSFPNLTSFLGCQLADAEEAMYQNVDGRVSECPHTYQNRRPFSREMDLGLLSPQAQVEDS

[10] = system: RXF 393; test: Growth inhibition of human RXF393 cells after 48 hrs by sulforhodamine B assay; assay type: functional; conditions: RXF 393, 48 h
[11] = system: M14; test: Cytotoxicity against human M14 cells after 48 hrs by sulforhodamine B assay; assay type: cell-based; conditions: m14, 48 h
[12] = biological target: Casein kinase I isoform alpha (Homo sapiens) (UniProt P48729); test: Binding affinity to human CSNK1A1 at 10 uM incubated for 1 hr by kinase binding assay relative to untreated control
Casein kinase I isoform alpha (Homo sapiens), sequence (P48729 2-337 limits assumed): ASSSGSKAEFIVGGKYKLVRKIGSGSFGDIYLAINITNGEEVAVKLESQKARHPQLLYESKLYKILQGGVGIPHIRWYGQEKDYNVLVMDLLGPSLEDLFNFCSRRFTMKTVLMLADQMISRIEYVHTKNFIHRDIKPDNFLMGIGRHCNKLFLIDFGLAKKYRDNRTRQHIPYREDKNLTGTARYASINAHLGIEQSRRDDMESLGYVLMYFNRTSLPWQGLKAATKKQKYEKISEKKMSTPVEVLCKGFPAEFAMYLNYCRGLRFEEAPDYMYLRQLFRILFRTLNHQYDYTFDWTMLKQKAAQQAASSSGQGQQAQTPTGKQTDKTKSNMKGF

[13] = biological target: Macrophage colony-stimulating factor 1 receptor (Homo sapiens) (UniProt P07333); test: Binding affinity to human CSF1R at 10 uM incubated for 1 hr by kinase binding assay relative to untreated control
Macrophage colony-stimulating factor 1 receptor (Homo sapiens), sequence (P07333 whole entry): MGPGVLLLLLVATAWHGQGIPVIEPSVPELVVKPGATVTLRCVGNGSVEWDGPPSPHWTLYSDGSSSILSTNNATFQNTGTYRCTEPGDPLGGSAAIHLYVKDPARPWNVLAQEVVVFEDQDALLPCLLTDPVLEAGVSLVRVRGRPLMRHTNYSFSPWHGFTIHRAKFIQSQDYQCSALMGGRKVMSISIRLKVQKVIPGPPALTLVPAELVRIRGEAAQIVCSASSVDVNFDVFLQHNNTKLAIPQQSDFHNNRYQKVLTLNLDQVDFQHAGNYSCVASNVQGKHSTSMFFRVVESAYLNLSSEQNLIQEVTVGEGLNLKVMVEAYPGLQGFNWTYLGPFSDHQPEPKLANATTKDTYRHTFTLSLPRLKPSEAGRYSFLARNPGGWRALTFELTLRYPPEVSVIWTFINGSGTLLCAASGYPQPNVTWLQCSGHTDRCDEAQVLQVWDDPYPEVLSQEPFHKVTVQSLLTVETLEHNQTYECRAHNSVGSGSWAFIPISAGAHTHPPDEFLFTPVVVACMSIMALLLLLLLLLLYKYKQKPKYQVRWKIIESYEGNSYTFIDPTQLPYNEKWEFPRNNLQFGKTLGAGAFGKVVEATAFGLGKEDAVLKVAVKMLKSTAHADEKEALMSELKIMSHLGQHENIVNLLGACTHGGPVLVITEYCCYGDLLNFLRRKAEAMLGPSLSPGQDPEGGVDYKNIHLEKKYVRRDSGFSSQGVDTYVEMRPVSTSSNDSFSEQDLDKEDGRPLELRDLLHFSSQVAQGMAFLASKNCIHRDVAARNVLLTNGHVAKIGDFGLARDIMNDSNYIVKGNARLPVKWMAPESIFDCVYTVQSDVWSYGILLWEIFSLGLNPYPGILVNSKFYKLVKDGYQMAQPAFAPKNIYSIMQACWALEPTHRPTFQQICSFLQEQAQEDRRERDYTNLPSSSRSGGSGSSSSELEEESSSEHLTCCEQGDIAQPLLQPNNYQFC

[14] = system: PC-3; test: Cytotoxicity against human PC3 cells after 48 hrs by sulforhodamine B assay; assay type: cell-based; conditions: pc-3, 48 h
[15] = biological target: T2, Mitogen-activated protein kinase 12 (Homo sapiens) (UniProt P53778); test: Binding affinity to human p38-gamma at 10 uM incubated for 1 hr by kinase binding assay relative to untreated control
T2 sequence (whole entry): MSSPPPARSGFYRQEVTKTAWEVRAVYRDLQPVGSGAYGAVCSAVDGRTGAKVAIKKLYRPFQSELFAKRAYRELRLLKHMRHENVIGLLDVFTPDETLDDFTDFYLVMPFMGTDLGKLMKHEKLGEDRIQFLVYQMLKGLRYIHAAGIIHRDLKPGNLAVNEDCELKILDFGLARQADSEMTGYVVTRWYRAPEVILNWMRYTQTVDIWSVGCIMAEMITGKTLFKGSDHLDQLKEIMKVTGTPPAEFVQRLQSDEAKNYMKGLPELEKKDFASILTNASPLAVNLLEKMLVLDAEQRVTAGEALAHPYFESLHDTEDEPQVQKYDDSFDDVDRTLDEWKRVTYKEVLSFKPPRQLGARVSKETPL

[16] = system: SNB-75; test: Cytotoxicity against human SNB75 cells after 48 hrs by sulforhodamine B assay; assay type: cell-based; conditions: snb-75, 48 h
[17] = system: Mast/stem cell growth factor receptor Kit (Homo sapiens), P10721 [D816H]; test: Inhibition of human KIT D816H using gamma-33P-ATP as substrate assessed as enzyme functional activity at 1 uM by scintillation counting relative to untreated control; set-up: scale not given: the % may be the effect or the level left
Mast/stem cell growth factor receptor Kit (Homo sapiens), P10721 [D816H], sequence (P10721 whole entry D816H): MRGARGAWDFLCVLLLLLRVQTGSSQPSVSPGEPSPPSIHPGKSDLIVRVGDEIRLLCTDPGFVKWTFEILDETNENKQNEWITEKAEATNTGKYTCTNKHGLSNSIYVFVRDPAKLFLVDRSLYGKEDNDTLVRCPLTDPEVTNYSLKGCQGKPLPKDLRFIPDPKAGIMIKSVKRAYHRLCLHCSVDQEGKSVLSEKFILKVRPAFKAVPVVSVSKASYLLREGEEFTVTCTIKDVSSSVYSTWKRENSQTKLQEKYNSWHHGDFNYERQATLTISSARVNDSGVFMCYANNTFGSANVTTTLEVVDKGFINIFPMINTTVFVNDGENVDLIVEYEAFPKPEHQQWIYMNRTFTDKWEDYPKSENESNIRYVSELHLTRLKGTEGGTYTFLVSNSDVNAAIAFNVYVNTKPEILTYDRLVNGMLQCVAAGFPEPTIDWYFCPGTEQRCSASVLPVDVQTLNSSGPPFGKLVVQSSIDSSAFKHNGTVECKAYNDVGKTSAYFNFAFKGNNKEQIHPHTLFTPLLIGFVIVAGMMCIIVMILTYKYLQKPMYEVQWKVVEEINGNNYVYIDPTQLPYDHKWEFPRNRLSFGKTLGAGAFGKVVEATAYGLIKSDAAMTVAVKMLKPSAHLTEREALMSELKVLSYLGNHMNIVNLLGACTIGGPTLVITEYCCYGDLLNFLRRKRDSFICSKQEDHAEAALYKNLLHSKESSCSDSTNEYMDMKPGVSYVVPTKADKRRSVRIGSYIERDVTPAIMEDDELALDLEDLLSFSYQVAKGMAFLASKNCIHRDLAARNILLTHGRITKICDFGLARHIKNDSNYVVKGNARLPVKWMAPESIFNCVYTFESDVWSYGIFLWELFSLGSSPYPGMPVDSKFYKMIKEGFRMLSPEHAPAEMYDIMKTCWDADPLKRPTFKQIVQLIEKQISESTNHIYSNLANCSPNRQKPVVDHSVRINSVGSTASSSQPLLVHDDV

[18] = system: KM12; test: Cytotoxicity against human KM12 cells after 48 hrs by sulforhodamine B assay; assay type: cell-based; conditions: km12, 48 h
[19] = system: HL-60(TB); test: Cytotoxicity against human HL-60(TB) cells after 48 hrs by sulforhodamine B assay; assay type: cell-based
[20] = system: ACHN; test: Growth inhibition of human ACHN cells after 48 hrs by sulforhodamine B assay; assay type: functional
[21] = biological target: Casein kinase I isoform delta (Homo sapiens) (UniProt P48730); test: Inhibition of human CSNK1D using gamma-33P-ATP as substrate assessed as enzyme functional activity at 1 uM by scintillation counting relative to untreated control; set-up: scale not given: the % may be the effect or the level left
Casein kinase I isoform delta (Homo sapiens), sequence (P48730 whole entry, looked up, canonical isoform): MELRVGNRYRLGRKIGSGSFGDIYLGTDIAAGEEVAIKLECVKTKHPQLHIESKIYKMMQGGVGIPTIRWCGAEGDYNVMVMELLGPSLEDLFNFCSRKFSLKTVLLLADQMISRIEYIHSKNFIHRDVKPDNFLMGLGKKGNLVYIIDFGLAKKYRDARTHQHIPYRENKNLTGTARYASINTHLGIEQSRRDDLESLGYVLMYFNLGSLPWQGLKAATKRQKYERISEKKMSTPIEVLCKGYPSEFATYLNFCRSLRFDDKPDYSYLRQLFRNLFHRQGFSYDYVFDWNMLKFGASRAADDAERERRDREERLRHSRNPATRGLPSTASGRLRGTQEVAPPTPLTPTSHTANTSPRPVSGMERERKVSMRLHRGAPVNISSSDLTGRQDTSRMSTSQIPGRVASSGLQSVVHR

[22] = biological target: Serine/threonine-protein kinase B-raf (Homo sapiens) (UniProt P15056); test: Binding affinity to human BRAF at 10 uM incubated for 1 hr by kinase binding assay relative to untreated control
[23] = system: SF-268; test: Cytotoxicity against human SF268 cells after 48 hrs by sulforhodamine B assay; assay type: cell-based; conditions: sf-268, 48 h
[24] = system: SK-OV-3; test: Growth inhibition of human SKOV3 cells after 48 hrs by sulforhodamine B assay; assay type: functional; conditions: SK-OV-3, 48 h
[25] = system: Receptor-type tyrosine-protein kinase FLT3 (Homo sapiens), P36888 [UNDEFINED MUTATION]; test: Binding affinity to human FLT3 ITD mutant at 10 uM incubated for 1 hr by kinase binding assay relative to untreated control

Tyrosine-protein kinase ABL1 (Homo sapiens), P00519 [F317I], sequence (P00519 whole entry F317I): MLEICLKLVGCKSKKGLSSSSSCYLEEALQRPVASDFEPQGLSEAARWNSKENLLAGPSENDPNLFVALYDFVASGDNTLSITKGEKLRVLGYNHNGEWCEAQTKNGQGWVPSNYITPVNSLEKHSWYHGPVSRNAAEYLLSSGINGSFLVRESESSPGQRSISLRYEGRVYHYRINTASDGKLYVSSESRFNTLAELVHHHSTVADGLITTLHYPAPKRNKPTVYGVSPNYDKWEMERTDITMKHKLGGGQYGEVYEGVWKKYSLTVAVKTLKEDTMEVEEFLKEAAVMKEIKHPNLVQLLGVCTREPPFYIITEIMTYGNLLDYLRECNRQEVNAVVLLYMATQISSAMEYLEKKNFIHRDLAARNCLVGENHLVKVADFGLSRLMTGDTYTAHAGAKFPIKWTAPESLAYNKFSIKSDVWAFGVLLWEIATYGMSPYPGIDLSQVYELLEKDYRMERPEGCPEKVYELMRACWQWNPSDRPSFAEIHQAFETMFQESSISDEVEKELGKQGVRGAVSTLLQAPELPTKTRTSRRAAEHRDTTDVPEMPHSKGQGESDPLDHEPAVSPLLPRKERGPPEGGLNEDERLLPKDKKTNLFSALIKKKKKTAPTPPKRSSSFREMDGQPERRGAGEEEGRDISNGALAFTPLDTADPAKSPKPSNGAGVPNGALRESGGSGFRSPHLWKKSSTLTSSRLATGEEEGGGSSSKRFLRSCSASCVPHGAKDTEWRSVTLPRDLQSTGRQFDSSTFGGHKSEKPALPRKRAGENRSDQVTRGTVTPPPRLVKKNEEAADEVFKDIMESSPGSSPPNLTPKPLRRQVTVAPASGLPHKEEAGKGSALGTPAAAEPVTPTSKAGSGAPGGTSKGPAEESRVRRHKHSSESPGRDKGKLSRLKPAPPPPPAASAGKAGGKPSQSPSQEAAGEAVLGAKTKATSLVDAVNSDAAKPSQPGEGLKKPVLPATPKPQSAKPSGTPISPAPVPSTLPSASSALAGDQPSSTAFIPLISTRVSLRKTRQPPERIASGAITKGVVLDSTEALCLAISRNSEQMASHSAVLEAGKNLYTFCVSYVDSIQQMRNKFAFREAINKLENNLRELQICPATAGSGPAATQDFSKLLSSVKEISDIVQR

For `c1ccc(Cc2cnc(N3CCN(c4ncnc5ccccc45)CC3)nc2)cc1`, the Activity [1] was 30%, the LC50 [2] was 44.3 µM and the Activity [3] was 4.1%. The LC50 [4] was > 100 µM, the LC50 [5] was 54.1 µM and the TGI [6] was 78.2 µM. For the same compound, the LC50 [7] was > 100 µM, the TGI [8] was 27.7 µM and the Activity [9] was 4%. For the same compound, the TGI [10] was 57.9 µM, the LC50 [11] was 51.6 µM and the Activity [12] was > 50%. For the same compound, the Activity [13] was 31%, the LC50 [14] was > 100 µM and the Activity [15] was > 50%. For the same compound, the LC50 [16] was > 100 µM, the Activity [17] was 30% and the LC50 [18] was 50.1 µM. For the same compound, the LC50 [19] was > 100 µM, the TGI [20] was 42.4 µM and the Activity [21] was 90%. The Activity [22] was > 50%, the LC50 [23] was > 100 µM and the TGI [24] was > 100 µM. It also gave an Activity [25] of 49%.
With `CCc1cnc(N2CCN(C(=O)c3ccc(CNc4ncnc5ccccc45)cc3)CC2)nc1` the Activity [1] was > 50%, the LC50 [2] was 97.3 µM and the Activity [3] was > 50%. For the same compound, the LC50 [4] was > 100 µM, the LC50 [5] was > 100 µM and the TGI [6] was 58.2 µM. For the same compound, the LC50 [7] was > 100 µM, the TGI [8] was 45.1 µM and the Activity [9] was > 50%. The TGI [10] was 41.6 µM, the LC50 [11] was 93.7 µM and the Activity [12] was 36%. For the same compound, the Activity [13] was > 50%, the LC50 [14] was > 100 µM and the Activity [15] was > 50%. For the same compound, the LC50 [16] was > 100 µM, the Activity [17] was 100% and the LC50 [18] was 53.8 µM. For the same compound, the LC50 [19] was > 100 µM, the TGI [20] was 82.5 µM and the Activity [21] was 87%. The Activity [22] was 34%, the LC50 [23] was > 100 µM and the TGI [24] was > 100 µM. The Activity [25] was > 50%.
For `O=C(c1cccc(Nc2ncnc3ccccc23)c1)N1CCN(c2ncc(Cc3ccccc3)cn2)CC1`, the Activity [1] was 20%, the LC50 [2] was 5.13 µM and the Activity [3] was > 50%. The LC50 [4] was > 100 µM, the LC50 [5] was > 100 µM and the TGI [6] was 5.89 µM. For the same compound, the LC50 [7] was 4.37 µM, the TGI [8] was 4.27 µM and the Activity [9] was > 50%. For the same compound, the TGI [10] was 11.5 µM, the LC50 [11] was 4.68 µM and the Activity [12] was > 50%. The Activity [13] was > 50%, the LC50 [14] was > 100 µM and the Activity [15] was 25%. For the same compound, the LC50 [16] was > 100 µM, the Activity [17] was 100% and the LC50 [18] was 6.61 µM. The LC50 [19] was 6.76 µM, the TGI [20] was 4.57 µM and the Activity [21] was 74%. For the same compound, the Activity [22] was > 50%, the LC50 [23] was 5.01 µM and the TGI [24] was 4.47 µM. For the same compound, the Activity [25] was > 50%.

Source: ChEMBL document CHEMBL1782045, “Discovery, synthesis, and investigation of the antitumor activity of novel piperazinylpyrimidine derivatives” (Eur J Med Chem, 2011)
